≈ marks a conversion by molar mass, not a printed value. Calls of active or inactive are those of the source. No cut-off for these calls is given here. Bridge positions count the residues as written; N and C are the ends. Peptide text beside a SMILES is read from it. I, II: the chains in the order shown. * marks the point of attachment. Octanoyl = CCCCCCCC(=O)*
Tests used:
[1] = Toxicity in human corneal fibroblasts assessed as cell viability at > 2000 uM after 4 hrs by LDH assay; type: cell-based; details: fibroblast
Pseudomonas aeruginosa [2] = assay: Antibacterial activity against Pseudomonas aeruginosa DM23155 assessed as log reduction of viable count at 2 times MIC after 30 mins by time-kill assay relative to control; type: functional
Pseudomonas aeruginosa [3] = assay: Antibacterial activity against Pseudomonas aeruginosa DR5790 after 24 hrs by broth microdilution method; type: functional; details: DR5790, 24 h
[4] = Toxicity in New Zealand white rabbit erythrocytes assessed as hemolytic activity after 60 mins; type: cell-based, Oryctolagus cuniculus; details: erythrocyte, 1 h
Pseudomonas aeruginosa [5] = assay: Antibacterial activity against Pseudomonas aeruginosa DM23155 after 24 hrs by checkerboard assay in presence of kanamycin; type: functional
Escherichia coli [6] = assay: Antibacterial activity against Escherichia coli DS17232 after 24 hrs by broth microdilution method; type: functional; details: DS17232, 24 h
Pseudomonas aeruginosa [7] = assay: Antibacterial activity against Pseudomonas aeruginosa DM23155 after 24 hrs by checkerboard assay in presence of streptomycin; type: functional
Lipopolysaccharide (LPS) [8] = assay: Displacement of dansylcadaverine from Escherichia coli 0111:B4 LPS at 15 to 30 uM after 5 mins by high-throughput fluorescence displacement assay
Escherichia coli [9] = assay: Antibacterial activity against Escherichia coli DM17528 after 24 hrs by broth microdilution method; type: functional; details: DM17528, 24 h
Pseudomonas aeruginosa [10] = assay: Antibacterial activity against Pseudomonas aeruginosa DR4877 after 24 hrs by broth microdilution method; type: functional; details: DR4877, 24 h
Lipopolysaccharide (LPS) [11] = assay: Induction of Escherichia coli 0111:B4 LPS neutralization using p-nitroaniline assessed as concentration required to neutralize 50% after 1 hr by limulus amebocyte lysate assay
Klebsiella pneumoniae [12] = assay: Antibacterial activity against Klebsiella pneumoniae DS16260 after 24 hrs by broth microdilution method; type: functional; details: DS16260, 24 h
Escherichia coli [13] = assay: Antibacterial activity against Escherichia coli ATCC 25922 after 24 hrs by checkerboard assay in presence of streptomycin; type: functional
Pseudomonas aeruginosa [14] = assay: Antibacterial activity against Pseudomonas aeruginosa ATCC 27853 after 24 hrs by broth microdilution method; type: functional; details: ATCC 27853, 24 h
Escherichia coli [15] = assay: Antibacterial activity against Escherichia coli ATCC 25922 after 24 hrs by checkerboard assay in presence of nalidixic acid; type: functional
Pseudomonas aeruginosa [16] = assay: Antibacterial activity against Pseudomonas aeruginosa DM23257 after 24 hrs by broth microdilution method; type: functional; details: DM23257, 24 h
Pseudomonas aeruginosa [17] = assay: Induction of cytoplasmic membrane disruption in Pseudomonas aeruginosa DM23155 assessed as membrane integrity at 1 to 2 times MIC after 1 hr by fluorescence assay; type: functional
Pseudomonas aeruginosa [18] = assay: Antibacterial activity against Pseudomonas aeruginosa DM23155 assessed as log reduction of viable count MIC up to 24 hrs by time-kill assay; type: functional, organism-based
Pseudomonas aeruginosa [19] = assay: Antibacterial activity against Pseudomonas aeruginosa ATCC 9027 after 24 hrs by broth microdilution method; type: functional; details: ATCC 9027, 24 h
Pseudomonas aeruginosa [20] = assay: Induction of cytoplasmic membrane depolarization in Pseudomonas aeruginosa DM23155 at 4 times MIC after 1 hr by fluorescence assay; type: functional, organism-based
Pseudomonas aeruginosa [21] = assay: Antibacterial activity against Pseudomonas aeruginosa DM23155 after 24 hrs by checkerboard assay in presence of erythromycin; type: functional
Klebsiella pneumoniae [22] = assay: Antibacterial activity against Klebsiella pneumoniae DB55301 after 24 hrs by broth microdilution method; type: functional; details: DB55301, 24 h
[23] = Induction of calcein leakage from DOPC artificial membrane at 1:32 ratio of compound to lipid by fluorescence assay; type: physicochemical
Escherichia coli [24] = assay: Antibacterial activity against Escherichia coli ATCC 25922 after 24 hrs by broth microdilution method; type: functional; details: ATCC 25922, 24 h
Pseudomonas aeruginosa [25] = assay: Antibacterial activity against Pseudomonas aeruginosa DM23376 after 24 hrs by broth microdilution method; type: functional; details: DM23376, 24 h
[26] = Toxicity in human corneal fibroblasts assessed as cell viability at > 2000 uM after 4 hrs by ATP luminescent assay; type: cell-based; details: fibroblast
Klebsiella pneumoniae [27] = assay: Antibacterial activity against Klebsiella pneumoniae DM4299 after 24 hrs by broth microdilution method; type: functional; details: DM4299, 24 h
Mus musculus [28] = assay: Corneal toxicity in mouse at 100 mg/kg, ip measured 24 hrs after last dose; type: organism-based; details: in vivo
Pseudomonas aeruginosa [29] = assay: Antibacterial activity against Pseudomonas aeruginosa DM23155 after 24 hrs by checkerboard assay in presence of nalidixic acid; type: functional
Pseudomonas aeruginosa [30] = assay: Antibacterial activity against Pseudomonas aeruginosa DM23155 assessed as log reduction of viable count at 2 times MIC after 24 hrs by time-kill assay; type: functional, organism-based
Pseudomonas aeruginosa [31] = assay: Antibacterial activity against Pseudomonas aeruginosa DM23155 after 24 hrs by checkerboard assay in presence of gentamicin; type: functional
Pseudomonas aeruginosa [32] = assay: Antibacterial activity against Pseudomonas aeruginosa DR18531 after 24 hrs by broth microdilution method; type: functional; details: DR18531, 24 h
Mus musculus [33] = assay: Corneal toxicity in mouse at 1 to 3 mg/ml applied topically 5 times per day measured 24 hrs after last dose; type: organism-based; details: in vivo, topical_or_ocular
Pseudomonas aeruginosa [34] = assay: Antibacterial activity against Pseudomonas aeruginosa DU14476 after 24 hrs by broth microdilution method; type: functional; details: DU14476, 24 h
Pseudomonas aeruginosa [35] = assay: Antibacterial activity against Pseudomonas aeruginosa DM23155 after 24 hrs by broth microdilution method; type: functional; details: DM23155, 24 h
Escherichia coli [36] = assay: Antibacterial activity against Escherichia coli ATCC 25922 after 24 hrs by checkerboard assay in presence of erythromycin; type: functional
[37] = Induction of calcein leakage from DOPE/DOPG artificial membrane at 1:32 ratio of compound to lipid by fluorescence assay; type: physicochemical
Pseudomonas aeruginosa [38] = assay: Antibacterial activity against Pseudomonas aeruginosa DM4150R after 24 hrs by broth microdilution method; type: functional
Mus musculus [39] = assay: Corneal toxicity in mouse at 6.25 mg/kg, iv measured 24 hrs after last dose; type: organism-based; details: in vivo
Klebsiella pneumoniae [40] = assay: Antibacterial activity against Klebsiella pneumoniae DS07955 after 24 hrs by broth microdilution method; type: functional; details: DS07955, 24 h
Escherichia coli [41] = assay: Antibacterial activity against Escherichia coli ATCC 25922 after 24 hrs by checkerboard assay in presence of kanamycin; type: functional
Klebsiella pneumoniae [42] = assay: Antibacterial activity against Klebsiella pneumoniae DU31158 after 24 hrs by broth microdilution method; type: functional; details: DU31158, 24 h
Escherichia coli [43] = assay: Antibacterial activity against Escherichia coli ATCC 25922 after 24 hrs by checkerboard assay in presence of gentamicin; type: functional
Pseudomonas aeruginosa [44] = assay: Antibacterial activity against Pseudomonas aeruginosa DM23155 assessed as log reduction of viable count at 1 time MIC after 24 hrs by time-kill assay; type: functional, organism-based
Pseudomonas aeruginosa [45] = assay: Antibacterial activity against Pseudomonas aeruginosa DM23155 assessed as log reduction of viable count at 2 times MIC after 5 hrs by time-kill assay relative to control; type: functional
Pseudomonas aeruginosa [46] = assay: Induction of 1-N-phenylnaphthylamine uptake in Pseudomonas aeruginosa DM23155 at 400 uM after 1 hr by fluorescence assay relative to polymyxin B; type: functional
Pseudomonas aeruginosa [47] = assay: Antibacterial activity against Pseudomonas aeruginosa DM23155 assessed as log reduction of viable count at 1 time MIC after 5 hrs by time-kill assay relative to control; type: functional

CCCCCCCC(=O)N[C@@H](CCCNC(=N)N)C(=O)NCC(=O)N[C@@H](CCCNC(=N)N)C(=O)N[C@@H](CCCCN)C(=O)N[C@H](C(=O)N[C@H](C(=O)N[C@@H](CCCNC(=N)N)C(=O)N[C@@H](CCCNC(=N)N)C(=O)NCCCC[C@H](NC(=O)[C@H](CCCNC(=N)N)NC(=O)[C@H](CCCNC(=N)N)NC(=O)[C@@H](NC(=O)[C@@H](NC(=O)[C@H](CCCCN)NC(=O)[C@H](CCCNC(=N)N)NC(=O)CNC(=O)[C@H](CCCNC(=N)N)NC(=O)CCCCCCC)C(C)C)C(C)C)C(=O)N[C@@H](CCCCN)C(=O)O)C(C)C)C(C)C (I: Octanoyl-RGRKVVRRKK-OH / II: Octanoyl-RGRKVVRR; amide I:9-II:C)
Activity [1]: > 2000 µM | FC (Pseudomonas aeruginosa [2]): 3 | MIC (Pseudomonas aeruginosa [3]): 3 µM (≈ 7.63 µg/mL) | HC10 [4]: > 10000 µg/mL | fractional inhibitory concentration index (FICI) (Pseudomonas aeruginosa [5]): 0.56 | MIC (Escherichia coli [6]): 10 µM (≈ 25.4 µg/mL) | fractional inhibitory concentration index (FICI) (Pseudomonas aeruginosa [7]): 0.56 | Activity (Lipopolysaccharide (LPS) [8]): 121% | MIC (Escherichia coli [9]): 10 µM (≈ 25.4 µg/mL) | MIC (Pseudomonas aeruginosa [10]): 3 µM (≈ 7.63 µg/mL) | EC50 (Lipopolysaccharide (LPS) [11]): 73.4 µM | MIC (Klebsiella pneumoniae [12]): 3 µM (≈ 7.63 µg/mL) | fractional inhibitory concentration index (FICI) (Escherichia coli [13]): 0.31 | MIC (Pseudomonas aeruginosa [14]): 3 µM (≈ 7.63 µg/mL) | fractional inhibitory concentration index (FICI) (Escherichia coli [15]): 0.5 | MIC (Pseudomonas aeruginosa [16]): 3 µM (≈ 7.63 µg/mL) | Activity (Pseudomonas aeruginosa [17]): >80% | Activity (Pseudomonas aeruginosa [18]): Dose-dependent effect | MIC (Pseudomonas aeruginosa [19]): 3 µM (≈ 7.63 µg/mL) | Activity (Pseudomonas aeruginosa [20]): Active | fractional inhibitory concentration index (FICI) (Pseudomonas aeruginosa [21]): 0.56 | MIC (Klebsiella pneumoniae [22]): 10 µM (≈ 25.4 µg/mL) | Activity [23]: Active | MIC (Escherichia coli [24]): 6 µM (≈ 15.3 µg/mL) | MIC (Pseudomonas aeruginosa [25]): 3 µM (≈ 7.63 µg/mL) | Activity [26]: > 2000 µM | MIC (Klebsiella pneumoniae [27]): 3 µM (≈ 7.63 µg/mL) | Activity (Mus musculus [28]): Non-toxic | fractional inhibitory concentration index (FICI) (Pseudomonas aeruginosa [29]): 0.5 | Activity (Pseudomonas aeruginosa [30]): Active | fractional inhibitory concentration index (FICI) (Pseudomonas aeruginosa [31]): 0.38 | MIC (Pseudomonas aeruginosa [32]): 1.5 µM (≈ 3.81 µg/mL) | Activity (Mus musculus [33]): Non-toxic | MIC (Pseudomonas aeruginosa [34]): 3 µM (≈ 7.63 µg/mL) | MIC (Pseudomonas aeruginosa [35]): 3 µM (≈ 7.63 µg/mL) | fractional inhibitory concentration index (FICI) (Escherichia coli [36]): 0.56 | Activity [37]: Active | MIC (Pseudomonas aeruginosa [38]): 3 µM (≈ 7.63 µg/mL) | Activity (Mus musculus [39]): Non-toxic | MIC (Klebsiella pneumoniae [40]): 10 µM (≈ 25.4 µg/mL) | fractional inhibitory concentration index (FICI) (Escherichia coli [41]): 0.31 | MIC (Klebsiella pneumoniae [42]): 10 µM (≈ 25.4 µg/mL) | fractional inhibitory concentration index (FICI) (Escherichia coli [43]): 0.31

N=C(N)NCCC[C@H](NC(=O)CNC(=O)CNC(=O)[C@H](CCCCN)NC(=O)[C@H](CCCNC(=N)N)NC(=O)CNC(=O)[C@@H](N)CCCNC(=N)N)C(=O)N[C@@H](CCCNC(=N)N)C(=O)NCCCC[C@H](NC(=O)[C@H](CCCNC(=N)N)NC(=O)[C@H](CCCNC(=N)N)NC(=O)CNC(=O)CNC(=O)[C@H](CCCCN)NC(=O)[C@H](CCCNC(=N)N)NC(=O)CNC(=O)[C@@H](N)CCCNC(=N)N)C(=O)N[C@@H](CCCCN)C(=O)O (I: H-RGRKGGRRKK-OH / II: H-RGRKGGRR; amide I:9-II:C)
MIC (Pseudomonas aeruginosa [3]): 6 µM (≈ 12.7 µg/mL) | HC10 [4]: > 10000 µg/mL | Activity (Pseudomonas aeruginosa [44]): inactive | Activity (Lipopolysaccharide (LPS) [8]): 84.8% | MIC (Pseudomonas aeruginosa [10]): 6 µM (≈ 12.7 µg/mL) | FC (Pseudomonas aeruginosa [45]): 10 | EC50 (Lipopolysaccharide (LPS) [11]): > 1000 µM | MIC (Pseudomonas aeruginosa [14]): 6 µM (≈ 12.7 µg/mL) | MIC (Pseudomonas aeruginosa [16]): 10 µM (≈ 21.2 µg/mL) | MIC (Pseudomonas aeruginosa [19]): 6 µM (≈ 12.7 µg/mL) | MIC (Escherichia coli [24]): 6 µM (≈ 12.7 µg/mL) | MIC (Pseudomonas aeruginosa [25]): 6 µM (≈ 12.7 µg/mL) | MIC (Klebsiella pneumoniae [27]): 3 µM (≈ 6.37 µg/mL) | Activity (Pseudomonas aeruginosa [30]): Active | MIC (Pseudomonas aeruginosa [32]): 3 µM (≈ 6.37 µg/mL) | MIC (Pseudomonas aeruginosa [34]): 6 µM (≈ 12.7 µg/mL) | MIC (Pseudomonas aeruginosa [35]): 6 µM (≈ 12.7 µg/mL) | MIC (Pseudomonas aeruginosa [38]): 6 µM (≈ 12.7 µg/mL) | Activity (Pseudomonas aeruginosa [46]): 1.9% | FC (Pseudomonas aeruginosa [47]): 2.7
